In PMC9401487 (Clinical Cancer Research, 2021):

Test system: patients with advanced solid tumors
Experiment: Phase I safety and tolerability
Type: in vivo, human
[1] = Cohort 7 (N=6), co-dosing 40 mg QD + carboplatin days 1 and 2
[2] = Cohort 7: 40 mg QD days 1–2 + carboplatin AUC5 day 1, 6 patients
[3] = all 36 patients, ceralasertib + carboplatin

## C[C@@H]1COCCN1c1cc(C2([S@](C)(=N)=O)CC2)nc(-c2cc[nH]c3nccc2-3)n1 [ceralasertib]
[1]
  TEAE Constipation, Grade 1–2: 3 (50) patients, n (%)
  TEAE Constipation, Grade ≥3: 0 patients, n (%)
  TEAE Contusion, Grade 1–2: 1 (17) patients, n (%)
  TEAE Contusion, Grade ≥3: 0 patients, n (%)
  TEAE Cough, Grade 1–2: 0 patients, n (%)
  TEAE Cough, Grade ≥3: 0 patients, n (%)
  TEAE Decreased appetite, Grade 1–2: 3 (50) patients, n (%)
  TEAE Decreased appetite, Grade ≥3: 0 patients, n (%)
  TEAE Diarrhea, Grade 1–2: 1 (17) patients, n (%)
  TEAE Diarrhea, Grade ≥3: 0 patients, n (%)
  TEAE Dizziness, Grade 1–2: 0 patients, n (%)
  TEAE Dizziness, Grade ≥3: 0 patients, n (%)
  TEAE Dyspnea, Grade 1–2: 0 patients, n (%)
  TEAE Dyspnea, Grade ≥3: 0 patients, n (%)
  TEAE Fatigue, Grade 1–2: 4 (67) patients, n (%)
  TEAE Fatigue, Grade ≥3: 0 patients, n (%)
  TEAE Hypocalcemia, Grade 1–2: 1 (17) patients, n (%)
  TEAE Hypocalcemia, Grade ≥3: 0 patients, n (%)
  TEAE Insomnia, Grade 1–2: 0 patients, n (%)
  TEAE Insomnia, Grade ≥3: 0 patients, n (%)
  TEAE Lower respiratory tract infection, Grade 1–2: 0 patients, n (%)
  TEAE Lower respiratory tract infection, Grade ≥3: 0 patients, n (%)
  TEAE Nausea, Grade 1–2: 5 (83) patients, n (%)
  TEAE Nausea, Grade ≥3: 0 patients, n (%)
  TEAE Neutropenia, Grade 1–2: 0 patients, n (%)
  TEAE Neutropenia, Grade ≥3: 0 patients, n (%)
  TEAE Neutrophil count decreased, Grade 1–2: 0 patients, n (%)
  TEAE Neutrophil count decreased, Grade ≥3: 1 (17) patients, n (%)
  TEAE Platelet count decreased, Grade 1–2: 2 (33) patients, n (%)
  TEAE Platelet count decreased, Grade ≥3: 1 (17) patients, n (%)
  TEAE Pyrexia, Grade 1–2: 1 (17) patients, n (%)
  TEAE Pyrexia, Grade ≥3: 0 patients, n (%)
  TEAE Thrombocytopenia, Grade 1–2: 0 patients, n (%)
  TEAE Thrombocytopenia, Grade ≥3: 0 patients, n (%)
  TEAE Upper respiratory tract infection, Grade 1–2: 1 (17) patients, n (%)
  TEAE Upper respiratory tract infection, Grade ≥3: 0 patients, n (%)
  TEAE Vomiting, Grade 1–2: 0 patients, n (%)
  TEAE Vomiting, Grade ≥3: 1 (17) patients, n (%)
  TEAE White blood cell count decreased, Grade 1–2: 0 patients, n (%)
  TEAE White blood cell count decreased, Grade ≥3: 0 patients, n (%)
[2]
  Number of DLTs: one DLT of grade 4 platelet count decreased
  SRC decision (tolerability): declared safe and well tolerated
N=36
  Patients who discontinued treatment because of an AE: 14%
Total (N=36)
  TEAE Abdominal pain, Grade 1–2: 5 (14) patients, n (%)
  TEAE Abdominal pain, Grade ≥3: 1 (3) patients, n (%)
  TEAE Alanine aminotransferase increased, Grade 1–2: 3 (8) patients, n (%)
  TEAE Alanine aminotransferase increased, Grade ≥3: 1 (3) patients, n (%)
  TEAE Anemia, Grade 1–2: 11 (31) patients, n (%)
  TEAE Anemia, Grade ≥3: 14 (39) patients, n (%)
  TEAE Any AE, Grade 1–2: 9 (25) patients, n (%)
  TEAE Any AE, Grade ≥3: 27 (75) patients, n (%)
  TEAE Arthralgia, Grade 1–2: 4 (11) patients, n (%)
  TEAE Arthralgia, Grade ≥3: 0 patients, n (%)
  TEAE Aspartate aminotransferase increased, Grade 1–2: 3 (8) patients, n (%)
  TEAE Aspartate aminotransferase increased, Grade ≥3: 1 (3) patients, n (%)
  TEAE Constipation, Grade 1–2: 10 (28) patients, n (%)
  TEAE Constipation, Grade ≥3: 0 patients, n (%)
  TEAE Contusion, Grade 1–2: 4 (11) patients, n (%)
  TEAE Contusion, Grade ≥3: 0 patients, n (%)
  TEAE Cough, Grade 1–2: 5 (14) patients, n (%)
  TEAE Cough, Grade ≥3: 0 patients, n (%)
  TEAE Decreased appetite, Grade 1–2: 8 (22) patients, n (%)
  TEAE Decreased appetite, Grade ≥3: 0 patients, n (%)
  TEAE Diarrhea, Grade 1–2: 6 (17) patients, n (%)
  TEAE Diarrhea, Grade ≥3: 0 patients, n (%)
  TEAE Dizziness, Grade 1–2: 4 (11) patients, n (%)
  TEAE Dizziness, Grade ≥3: 0 patients, n (%)
  TEAE Dyspnea, Grade 1–2: 5 (14) patients, n (%)
  TEAE Dyspnea, Grade ≥3: 0 patients, n (%)
  TEAE Fatigue, Grade 1–2: 16 (44) patients, n (%)
  TEAE Fatigue, Grade ≥3: 1 (3) patients, n (%)
  TEAE Hypocalcemia, Grade 1–2: 4 (11) patients, n (%)
  TEAE Hypocalcemia, Grade ≥3: 0 patients, n (%)
  TEAE Insomnia, Grade 1–2: 5 (14) patients, n (%)
  TEAE Insomnia, Grade ≥3: 0 patients, n (%)
  TEAE Lower respiratory tract infection, Grade 1–2: 4 (11) patients, n (%)
  TEAE Lower respiratory tract infection, Grade ≥3: 1 (3) patients, n (%)
  TEAE Nausea, Grade 1–2: 20 (56) patients, n (%)
  TEAE Nausea, Grade ≥3: 1 (3) patients, n (%)
  TEAE Neutropenia, Grade 1–2: 4 (11) patients, n (%)
  TEAE Neutropenia, Grade ≥3: 9 (25) patients, n (%)
  TEAE Neutrophil count decreased, Grade 1–2: 0 patients, n (%)
  TEAE Neutrophil count decreased, Grade ≥3: 4 (11) patients, n (%)
  TEAE Platelet count decreased, Grade 1–2: 4 (11) patients, n (%)
  TEAE Platelet count decreased, Grade ≥3: 2 (6) patients, n (%)
  TEAE Pyrexia, Grade 1–2: 9 (25) patients, n (%)
  TEAE Pyrexia, Grade ≥3: 0 patients, n (%)
  TEAE Thrombocytopenia, Grade 1–2: 12 (33) patients, n (%)
  TEAE Thrombocytopenia, Grade ≥3: 13 (36) patients, n (%)
  TEAE Upper respiratory tract infection, Grade 1–2: 4 (11) patients, n (%)
  TEAE Upper respiratory tract infection, Grade ≥3: 0 patients, n (%)
  TEAE Vomiting, Grade 1–2: 7 (19) patients, n (%)
  TEAE Vomiting, Grade ≥3: 2 (6) patients, n (%)
  TEAE White blood cell count decreased, Grade 1–2: 0 patients, n (%)
  TEAE White blood cell count decreased, Grade ≥3: 5 (14) patients, n (%)
[3]
  TEAE anemia, any grade, patients: 69.4%
  TEAE fatigue, any grade, patients: 47%
  TEAE grade ≥3 anemia, patients: 39%
  TEAE grade ≥3 neutropenia, patients: 25%
  TEAE grade ≥3 thrombocytopenia, patients: 36%
  TEAE nausea, any grade, patients: 58%
  TEAE neutropenia, any grade, patients: 36%
  TEAE thrombocytopenia, any grade, patients: 69.4%
All cohorts
  AEs with a fatal outcome: no AEs with a fatal outcome were reported
  Clinical chemistry laboratory variables, vital signs, ECG parameters: No clinically significant findings
Cycle 1 and beyond, N=36
  Patients with dose modifications: 47%
  Patients with dose reductions: 25%
  Patients with treatment interruptions: 31%
Days 1–2, with carboplatin AUC5, 21-day cycles
  MTD dose schedule (concurrent): 40 mg once daily
Days 4–13, with carboplatin AUC5, 21-day cycles
  MTD dose schedule (sequential): 20 mg twice daily
Safety set N=36
  Patients who experienced ≥1 TEAE: 36 patients
